Tests used:
Assay in all cases: relative viability (nuclei count vs DMSO), 5 days (fraction); higher = more cells survive
[1] = tested on: NCI-H596
How it was run: (§1)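 Each reported value is a median over duplicate plates. It expresses relative viability: treated-well nuclei count divided by vehicle-well nuclei count. Lung cancer cell lines in 1536-well plates were dosed by pin tool a day after seeding, alone with one drug or with a fixed anchor-drug dose plus five library-drug doses (not always all listed) in √10 steps, and nuclei were counted after 5 days.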

[2] = tested on: PC-3 [JPC-3]
How it was run: as §1

[3] = tested on: NCI-H1915
How it was run: as §1

[4] = tested on: NCI-H2087
How it was run: as §1

[5] = tested on: 201T
How it was run: as §1

[6] = tested on: NCI-H650
How it was run: as §1

[7] = tested on: BEN
How it was run: as §1

[8] = tested on: LCLC-97TM1
How it was run: as §1

[9] = tested on: NCI-H441
How it was run: as §1

[10] = tested on: NCI-H460
How it was run: as §1

[11] = tested on: NCI-H1944
How it was run: as §1

[12] = tested on: NCI-H727
How it was run: as §1

[13] = tested on: A-427
How it was run: as §1

[14] = tested on: ABC-1
How it was run: as §1

[15] = tested on: NCI-H1651
How it was run: as §1

[16] = tested on: H3255
How it was run: as §1

[17] = tested on: LC-2-ad
How it was run: as §1

[18] = tested on: CAL-12T
How it was run: as §1

Compound Cc1sc2c(c1C)C(c1ccc(Cl)cc1)=N[C@@H](CC(=O)OC(C)(C)C)c1nnc(C)n1-2 [JQ1] + NC(=O)Nc1cc(-c2cccc(F)c2)sc1C(=O)N[C@H]1CCCNC1 [AZD7762] (partner 0.2 µM) has a relative viability ([1]; first compound 0.04 µM) of 1.02, a relative viability ([1]; first compound 0.1265 µM) of 0.898 and a relative viability ([1]; first compound 0.4 µM) of 0.704. The relative viability ([1]; first compound 1.265 µM) was 0.632, the relative viability ([1]; first compound 4 µM) was 0.373 and the relative viability ([2]; first compound 0.04 µM) was 0.709. The relative viability ([2]; first compound 0.1265 µM) was 0.849, the relative viability ([2]; first compound 0.4 µM) was 0.497 and the relative viability ([2]; first compound 1.265 µM) was 0.527. The relative viability ([2]; first compound 4 µM) was 0.438, the relative viability ([3]; first compound 0.04 µM) was 0.729 and the relative viability ([3]; first compound 0.4 µM) was 0.653. The relative viability ([3]; first compound 1.265 µM) was 0.437, the relative viability ([3]; first compound 4 µM) was 0.241 and the relative viability ([4]; first compound 0.04 µM) was 1.34. For the same compound, the relative viability ([4]; first compound 0.1265 µM) was 1.29, the relative viability ([4]; first compound 0.4 µM) was 1.29 and the relative viability ([4]; first compound 1.265 µM) was 0.604. The relative viability ([4]; first compound 4 µM) was 0.383, the relative viability ([5]; first compound 0.04 µM) was 0.716 and the relative viability ([5]; first compound 0.4 µM) was 0.7. For the same compound, the relative viability ([5]; first compound 1.265 µM) was 0.498, the relative viability ([5]; first compound 4 µM) was 0.393 and the relative viability ([6]; first compound 0.04 µM) was 0.935. For the same compound, the relative viability ([6]; first compound 0.1265 µM) was 0.591, the relative viability ([6]; first compound 0.4 µM) was 1 and the relative viability ([6]; first compound 1.265 µM) was 0.565. The relative viability ([6]; first compound 4 µM) was 0.302, the relative viability ([7]; first compound 0.04 µM) was 0.718 and the relative viability ([7]; first compound 0.1265 µM) was 0.585. The relative viability ([7]; first compound 0.4 µM) was 0.644, the relative viability ([7]; first compound 1.265 µM) was 0.468 and the relative viability ([7]; first compound 4 µM) was 0.372. It also gave a relative viability ([8]; first compound 0.04 µM) of 0.269, a relative viability ([8]; first compound 0.1265 µM) of 0.255 and a relative viability ([8]; first compound 0.4 µM) of 0.268. It also gave a relative viability ([8]; first compound 1.265 µM) of 0.097, a relative viability ([8]; first compound 4 µM) of 0.0653 and a relative viability ([9]; first compound 0.04 µM) of 1.07. For the same compound, the relative viability ([9]; first compound 0.1265 µM) was 1.16, the relative viability ([9]; first compound 0.4 µM) was 1.04 and the relative viability ([9]; first compound 1.265 µM) was 0.369. It also gave a relative viability ([9]; first compound 4 µM) of 0.249, a relative viability ([10]; first compound 0.04 µM) of 0.594 and a relative viability ([10]; first compound 0.1265 µM) of 0.327. The relative viability ([10]; first compound 0.4 µM) was 0.644, the relative viability ([10]; first compound 1.265 µM) was 0.443 and the relative viability ([10]; first compound 4 µM) was 0.106. It also gave a relative viability ([11]; first compound 0.04 µM) of 0.533, a relative viability ([11]; first compound 0.1265 µM) of 0.412 and a relative viability ([11]; first compound 0.4 µM) of 0.434. It also gave a relative viability ([11]; first compound 1.265 µM) of 0.365, a relative viability ([11]; first compound 4 µM) of 0.313 and a relative viability ([12]; first compound 0.04 µM) of 0.735. For the same compound, the relative viability ([12]; first compound 0.1265 µM) was 0.61, the relative viability ([12]; first compound 0.4 µM) was 0.539 and the relative viability ([12]; first compound 1.265 µM) was 0.436. It also gave a relative viability ([12]; first compound 4 µM) of 0.405, a relative viability ([13]; first compound 0.04 µM) of 0.749 and a relative viability ([13]; first compound 0.1265 µM) of 0.611. It also gave a relative viability ([13]; first compound 0.4 µM) of 0.594, a relative viability ([13]; first compound 1.265 µM) of 0.516 and a relative viability ([13]; first compound 4 µM) of 0.416. The relative viability ([14]; first compound 0.04 µM) was 0.854, the relative viability ([14]; first compound 0.1265 µM) was 0.803 and the relative viability ([14]; first compound 0.4 µM) was 0.95. For the same compound, the relative viability ([14]; first compound 1.265 µM) was 0.596, the relative viability ([14]; first compound 4 µM) was 0.529 and the relative viability ([15]; first compound 0.04 µM) was 0.538. The relative viability ([15]; first compound 0.1265 µM) was 0.45, the relative viability ([15]; first compound 0.4 µM) was 0.427 and the relative viability ([15]; first compound 1.265 µM) was 0.421. It also gave a relative viability ([15]; first compound 4 µM) of 0.419, a relative viability ([16]; first compound 0.04 µM) of 0.851 and a relative viability ([16]; first compound 0.1265 µM) of 0.67. It also gave a relative viability ([16]; first compound 0.4 µM) of 0.71, a relative viability ([16]; first compound 1.265 µM) of 0.411 and a relative viability ([16]; first compound 4 µM) of 0.277. For the same compound, the relative viability ([17]; first compound 0.04 µM) was 0.793, the relative viability ([17]; first compound 0.1265 µM) was 0.42 and the relative viability ([17]; first compound 0.4 µM) was 0.374. It also gave a relative viability ([17]; first compound 1.265 µM) of 0.249, a relative viability ([17]; first compound 4 µM) of 0.204 and a relative viability ([18]; first compound 0.04 µM) of 0.588. It also gave a relative viability ([18]; first compound 0.1265 µM) of 0.52, a relative viability ([18]; first compound 0.4 µM) of 0.466 and a relative viability ([18]; first compound 1.265 µM) of 0.365. The relative viability ([18]; first compound 4 µM) was 0.317.

Source: the supplement of paper PMC10307832
